Laboratory results reported in paper PMC10648942, “Safety and pharmacokinetics of SPR206 in subjects with varying degrees of renal impairment” (Antimicrobial Agents and Chemotherapy, 2023).
Where two headings read alike, the source gives them in different places. Bridge positions count the residues as written; N and C are the ends. Square brackets hold non-standard residues; d marks the D form. Peptide text beside a SMILES is read from it. * marks the point of attachment. X1 = NC[C@@H](CC(=O)*)c1cccc(Cl)c1; Dab = NCC[C@H](N)C(=O)O; Dap = NC[C@H](N)C(=O)O

Tests used:
[1] = human, in vivo, cited from earlier work
kidney cell = details: cited from earlier work
[2] = Safety/tolerability (TEAEs, laboratory, ECG), Phase 1 renal impairment study; type: in vivo, human
[3] = human, in vivo; cited from earlier work
[4] = parameters: species or system human; AUC0-8 vs eGFR regression, Coefficient (95% CI) / AUC0-last vs eGFR regression, Intercept / AUC0-last vs eGFR regression, Coefficient (95% CI) / AUC0-∞ vs eGFR regression, Intercept / AUC0-∞ vs eGFR regression, Coefficient (95% CI) / AUC0-8 vs eGFR regression, Intercept: unit not given beside the values; details: in vivo
Experimental: To model the relationship between renal function and PK parameters, a linear regression analysis was performed using log-transformed values of AUC0–8, AUC0–last, AUC0–∞, C max, and CL, which were dependent variables. The independent variable to predict the PK parameters was eGFR after adjusting for baseline covariates (age, gender, race, and body weight). Parameter estimates, standard errors, confidence intervals (CIs), and P-values were presented.

[5] = rat, in vivo; cited from earlier work
[6] = human; cited from earlier work
clinical = assay: clinical; parameters: species or system human; AUC0–∞ LS GMR vs healthy subjects, range / AUC0–last LS GMR vs healthy subjects, range / AUC0−8, LS GMR (90% CI): unit not given beside the values; details: in vivo
Excerpt: This was a Phase 1, open-label study to assess the safety, tolerability, and PK of a single 100-mg IV dose of SPR206 administered to healthy adults with normal renal function and those with varying degrees of RI including subjects with ESRD on HD. Subjects were screened within 28 days prior to dosing. Study drug administration occurred on day 1 for Cohorts 1–4 (normal renal function, mild RI, moderate RI, and severe RI) and on days 1 and 5 for Cohort 5 (ESRD on HD). Subjects remained confined to the clinical study unit from day −1 (1 day prior to study drug administration) until completion of the scheduled study procedures at the end of confinement on day 4 (Cohorts 1–4) or on day 7 (Cohort 5). A follow-up safety visit occurred 7 to 14 calendar days after the last dose for all subjects.
On the morning of day 1, subjects in Cohorts 1–4 received a single 100-mg IV dose of […] infused over 1 h. Subjects in Cohort 5 received a single IV dose of SPR206 within 2 h (±1 h) after completion of regularly scheduled HD on day 1 (Period 1) and a second dose approximately 1 h prior to their regularly scheduled HD on day 5 (Period 2). Details of the HD procedure are provided in the Supplement.
(§1) Subjects in Cohorts 1–4 had serial blood samples collected to determine plasma SPR206 concentrations at pre-dose (0) and 0.5, 1, 1.25, 1.5, 2, 2.5, 3, 5, 8, 10, 12, 18, 24, and 36 h post-dose. Total voided urine was collected over a 2-h interval from −2 to 0 h (pre-dose) and at 0–4, 4–8, 8–12, 12–24, and 24–36 h post-dose. For subjects in Cohort 5, blood samples were collected on dosing days 1 and 5 pre-dose (0 h) and 0.5, 1, 1.25, 1.5, 2, 2.5, 3, 5, 8, 10, 12, 18, 24, and 36 h after dosing. On day 5 (Period 2), the 1-h post-dose sample was collected immediately prior to initiation of dialysis, and the 5-h post-dose sample was collected 10 min prior to the end of dialysis. The 36-h post-dose samples on days 3 and 7 were collected prior to the next dialysis session if scheduled on the same day. In Period 2, blood samples were collected from both the inflow (arterial) and outflow (venous) lines pre-dialysis and at approximately 1, 2, 3, and 4 h after initiation of HD on day 5. If the HD session was shorter or longer than 4 h after the start of HD, a final sample was collected at the end of dialysis. Plasma and urine samples were assayed for SPR206 using a validated liquid chromatography tandem mass spectrometry method (QPS, LLC, Newark, DE, USA). For plasma, the assay range was 50 to 50,000 ng/mL, and for urine, the range was 100 to 50,000 ng/mL. In plasma, the intraday precision (% coefficient of variation) ranged from 1.3% to 7.7%, and the accuracy (% relative error) ranged from 1.6% to 6.0%. In urine, the intraday precision (% coefficient of variation) ranged from 1.7% to 7.5%, and the accuracy (% relative error) ranged from −4.8% to 7.3%. Additional details are provided in the Supplement.
For all cohorts, the following PK parameters were calculated using noncompartmental methods based on plasma SPR206 concentrations: C max, T max, AUC0−last, AUC0−8, AUC0−∞, terminal elimination half-life (t 1/2), CL, and volume of distribution at the terminal phase (V Z). For Cohort 5, additional parameters were extraction ratio (ER), estimated hemodialysis clearance, and amount of the dose removed by hemodialysis. The ER was calculated as 100 × [(CA − CV)/CA], where CA and CV were predialyzer and postdialyzer paired drug concentrations at the arterial and venous sites. SPR206 clearance during HD (CLHD) was calculated using the following equation: CLHD = Q × ER, where Q was the known blood flow through the dialyzer. The amount of SPR206 removed by dialysis (XHD) was estimated by multiplying the AUC during dialysis [i.e., AUC from the beginning of dialysis to end of dialysis (AUCon–HD)] by CLHD: XHD = AUCon–HD × CLHD.
Mean and individual plasma concentration-time curves were tabulated for each cohort (and for Cohort 5 subjects by period). […]

[7] = parameters: species or system human; details: in vivo
Experimental: as §1, with “Supplement. Urine PK parameters included Aet, Ae%, Aeu, CLR, Fe, and Feu.” for “Supplement.”

Acinetobacter species = system: Acinetobacter species; parameters: method as in doi:10.1093/ofid/ofac492.1306, doi:10.1093/ofid/ofac492.1307; details: Acinetobacter species clinical isolates; cited from earlier work
Enterobacterales = system: Enterobacterales; parameters: method as in doi:10.1093/ofid/ofac492.1306, doi:10.1093/ofid/ofac492.1307; details: Enterobacterales clinical isolates; cited from earlier work
[8] = cited from earlier work
P. aeruginosa = system: P. aeruginosa; parameters: method as in doi:10.1093/ofid/ofac492.1306, doi:10.1093/ofid/ofac492.1307; details: P. aeruginosa clinical isolates; cited from earlier work

CC(C)C[C@@H]1NC(=O)[C@@H](Cc2ccccc2)NC(=O)[C@H](CCN)NC(=O)[C@@H](NC(=O)[C@H](CN)NC(=O)[C@@H](NC(=O)C[C@H](CN)c2cccc(Cl)c2)[C@@H](C)O)CCNC(=O)[C@H]([C@@H](C)O)NC(=O)[C@H](CCN)NC(=O)[C@H](CCN)NC1=O [SPR206] (X1-T[Dap][Dab][Dab][dF]L[Dab][Dab]T; lactam 3-C (inferred))
AUC0–∞ ([1]; iv): 20400 ng·h/mL
C max ([1]; iv): 5300 ng/mL
total CL ([1]; iv): 5.0 L/h
pharmacokinetic profile in a Phase 1 study [1]: dose-proportional
tolerability in a Phase 1 study [1]: well tolerated
kidney cell cytotoxicity compared with polymyxin B (kidney cell): lower kidney cell cytotoxicity
deaths, treatment-related serious AEs, TEAEs leading to study discontinuation ([2]; all cohorts): No deaths, treatment-related serious AEs, or TEAEs leading to study discontinuation were reported
TEAE headache, overall incidence ([2]; in vivo): 13.5%
TEAE paresthesia, overall incidence ([2]; in vivo): 8.1%
clinical laboratory results, ECG findings, physical examination ([2]; in vivo): No clinically significant abnormalities
relation of the two serious (severe) TEAEs to study drug ([2]; in vivo): unrelated to study drug
serum creatinine levels from screening through follow-up ([2]; in vivo): remained stable
subjects whose TEAEs were mild ([2]; in vivo): 19 (51.4%) subjects (%)
subjects with at least one TEAE ([2]; in vivo): 23 (62.2%) subjects (%)
subjects with moderate TEAEs (infusion site phlebitis, drug hypersensitivity) leading to study drug discontinuation ([2]; in vivo): 5.4%
subjects with treatment-related AEs ([2]; in vivo): 13 (35.1%) subjects (%)
treatment-related adverse events, severity ([2]; in vivo): Mostly mild but no serious treatment-related adverse events were reported
TEAE oral paresthesia, overall incidence ([2]; in vivo, po): 8.1%
AUC0–8 [3]: 20100 ng·h/mL
C max [3]: 4400 ng/mL
AUC0-8 vs eGFR regression, Coefficient (95% CI) [4]: −0.0063 (−0.0083, –0.0044)
AUC0-8 vs eGFR regression, Intercept [4]: 3.5
AUC0-last vs eGFR regression, Coefficient (95% CI) [4]: −0.0147 (−0.0168, –0.0125)
AUC0-last vs eGFR regression, Intercept [4]: 4.5
AUC0-∞ vs eGFR regression, Coefficient (95% CI) [4]: −0.0161 (−0.0190, –0.0131)
AUC0-∞ vs eGFR regression, Intercept [4]: 4.6
C max vs eGFR regression, Coefficient (95% CI) [4]: −0.0018 (−0.0040, 0.0005)
C max vs eGFR regression, Intercept [4]: 2.0
CL vs eGFR regression, Coefficient (95% CI) [4]: 0.0172 (0.0148, 0.0196)
CL vs eGFR regression, Intercept [4]: 0.1
kidney exposure compared with polymyxin B [5]: lower kidney exposure
Protein binding [6]: ≤ 12.8%
AUC0–last greater than healthy subjects (clinical; human): 131%
CL lower than healthy subjects (clinical; human): 75%
time of peak plasma concentration (end of infusion) (clinical; human): 1 h
AUC(0-t) (clinical; human, AUC0–8, LS GM (SE)): 21800 ng·h/mL
AUC(0-t) (clinical; human, AUC0−8, LS GM (SE)): 17300 ng·h/mL
Cmax (clinical; human, C max, LS GM (SE)): 5900 ng/mL
Cmax (clinical; human, iv, C max, geometric mean (CV %)): 5900 ng/mL
Cmax (clinical; human, mean peak concentration (C max)): ~6500 ng/mL
AUC0–last LS GMR vs healthy subjects, range (clinical): 1.39-3.39
AUC0–∞ LS GMR vs healthy subjects, range (clinical): 1.39-4.09
AUC0−8, LS GMR (90% CI) (clinical): 0.59 (0.52, 0.67)
C max LS GMR vs healthy subjects, range (clinical): 1.07-1.14
CL LS GMR vs healthy subjects, range (clinical): 0.71-0.24
mean AUC0–last greater in subjects with RI vs healthy subjects (clinical): 39-239%
mean AUC0–last lower, dialyzed vs nondialyzed (clinical): 51%
mean plasma CL lower vs healthy subjects (clinical): 29-76%
mean CLR as % of total CL ([7]; human): 24.6%
time up to which urine concentrations were quantifiable [7]: up to 36 h
time within which SPR206 was excreted in urine [7]: ≤ 12 h

colistin
MIC90 (Acinetobacter species): 1 µg/mL
MIC90 (Enterobacterales): 0.5 µg/mL
route of elimination ([8]; in vivo): eliminated primarily by non-renal mechanisms
MIC90 (P. aeruginosa): 1 µg/mL

colistin methanesulfonate
route of elimination ([8]; in vivo): eliminated predominantly by renal excretion

polymyxin B
route of elimination [8]: eliminated primarily by non-renal mechanisms
